In patent US11345700B2, “Methods of preparing inhibitors of influenza viruses replication” (priority 2013, dated 2022):

Test system: influenza A strains
Assay: microbe, parasite or virus in culture
Format: cell-based
Settings: H3N2, MDCK, read-out: Cell Protection Assay EC50 ± SD, A/Texas/12/2007, H3N2, amantadine resistance (phenotypic), oseltamivir carboxylate resistance NA 119V

With `O=C(O)[C@H]1[C@H]2CC[C@H](CC2)[C@@H]1Nc1nc(-c2c[nH]c3ncc(F)cc23)ncc1F` [Compound (1)] the EC50 was 650 ± 220 pM.
